Measured values published in patent US20230263729A1, “POLY(ETHYLENE GLYCOL)-BLOCK-POLY(PROPYLENE SULFIDE) NANOCARRIER PLATFORM FOR ENHANCED EFFICACY OF IMMUNOSUPPRESSIVE AGENTS” (Northwestern University, priority 2019, published 2023).

How the values were obtained:
allogeneic islet graft = test: Intraportal fully-MHC mismatched allogeneic islet transplantation; format: in vivo, C57BL/6J mice; conditions: standard dosage: 11 daily injections, 1 mg rapamycin per kg
Description: Allogeneic Islet Transplantation—Diabetes was induced via streptozotocin (IP; 190 mg/kg) injection five days prior to transplantation and confirmed via hyperglycemia (blood glucose>400 mg/dl). Starting the day prior to transplantation, mice were injected with PBS, PS, rapamycin, or rPS (N=3 per group) at 1 mg/kg (or equivalent) in accordance with a standard dosage (11 doses, given daily) or a low dosage (6 doses, given every 3rd day). On the day of transplantation, islets were isolated from Balb/c mice via common bile duct cannulation and pancreas distension with collagenase. Islets isolated from two donors (˜200 mouse islets, ˜175 IEQ) were transplanted to C57B6/J recipients via the portal vein. Body weight and blood glucose concentration were monitored closely for 100 days post-transplantation. Intraperitoneal glucose tolerance test (IPGTT) was performed one-month post transplantation. The animals were fasted for 16 hours before being injected intraperitoneally with 2 g dextrose (200 g/L; Gibco) per kg body weight. Blood glucose concentrations were measured at 0, 15, 30, 60- and 120-minutes post-injection.

[1] = in vivo; cited from earlier work
[2] = test system: hair follicles at injection site; test: Alopecia assessment (dorsal photos, H&E histology); format: in vivo, C57BL/6J mice
Description: Alopecia Assessment—Dorsal photos were taken weekly to assess for alopecia. At 100-days post-transplantation, the mice were euthanized and skin samples were excised in the dorsal region at the subcutaneous injection site. Skin samples were placed in cassettes, fixed in 4% paraformaldehyde, and embedded in paraffin. Tissue blocks were sectioned at a thickness of […] and stained with hematoxylin and eosin (H&E). Digital images were taken on a Nikon microscope.

red blood cells = conditions: in vivo; cited from earlier work
[3] = test system: genes associated with rapamycin side effects; test: Single cell RNA sequencing of spleen macrophages and CD4+ regulatory T cells; format: in vivo, C57BL/6J mice; conditions: 1 mg/kg s.c. 11 days
Description: Single Cell RNA Sequencing—Healthy C57BL/6J mice were subjected to a “standard dosage regime.” Animals were injected subcutaneously for 11 days with rapamycin (in 0.2% CMC) or rPS at a dose of 1 mg/kg. Equivalent dose of 1×PBS or PS were injected as controls. After 11 days, the mice were sacrificed, and the liver and spleen were excised. The organs were processed as was done for flow cytometry. CD4+ regulatory T cells and macrophages were isolated using magnetic sorting (MojoSort; BioLegend). Briefly, cells were first incubated in a cocktail of PE anti-mouse CD169 and PE anti-mouse F4/80 antibodies (BioLegend). After washing, incubation in anti-PE nanobeads (BioLegend) occurred. Macrophages were magnetically sorted from non-macrophages. The non-macrophages cell fraction was then incubated in mouse CD4+ T cell isolation biotin-antibody cocktail (BioLegend) and sorted. The CD4+ T cell fraction was then incubated in APC anti-mouse CD25 antibody (BioLegend), followed by washing, incubation in anti-APC nanobeads (BioLegend) and sorting. RNA was isolated from separated macrophages and CD4+ regulatory T cells using R-Neasy Mini Kit with DNAse digestion (Qiagen), Samples were frozen and shipped to Admera Health where they underwent library preparation using the Lexogen 3′ mRNA-Seq Library Prep Kit FWD HT (Lexogen) and were sequenced on an Illumina sequencer (HiSeq 2500 2×150 bp). For each pair, Read 2 was discarded and only Read 1 was used for downstream data analysis. Sequencing quality was analyzed with FastQC v0.11.5^47 and reads were trimmed and filtered with Trimmomatic v0.3948. One sample from the spleen T cell PBS treatment group and one sample from the spleen T cell rapamycin treatment group were discarded due to low sequencing quality. Reads were aligned with STAR v2.6.0a 49 to the GRCm38.p6 mouse reference genome primary assembly using the GRCm38.p6 mouse reference primary comprehensive gene annotation (https://www.gencodegenes.org/mouse/). Quantification and differential expression was performed with Cuffdiff from Cufflinks v2.2.150-52 again using the GRCm38.p6 mouse reference primary comprehensive gene annotation and a 0.05 FDR. Detailed settings for each software are included in Table S1.

BMDCs = test: BMDC activation and maturation in vitro (surface markers, IL12p70 ELISA); format: cell-based, C57BL/6 mice; conditions: aVD 10^−8 M; LPS and IFN-γ stimulation
Description: Assessment of BMDC activation and maturation in vitro—BMDCs were cultured at a density of 1×10^6/ml and were incubated at 37° C. with 5% CO2 for 10 days. Free aVD, aVD-loaded PS (PS-aVD) or aVD-loaded P-D2-PEG5-PS (P-D2-PEG5-PS-aVD) with the aVD concentration of 10^−8 M were added when the media was refreshed on days 3 and 6. On day 7, 10 ng/ml murine recombinant interferon (IFN-γ) and 1 μg/ml LPS were added to stimulate dendritic cell maturation. At day 10, BMDCs were collected, washed with PBS and then incubated with anti-mouse CD16/CD32 to block FcRs and Zombie Aqua fixable viability dye to determine live/dead cells for 20 min. Cells were washed with PBS and stained with antibody cocktail (CD11c, […] CD80, and CD86) (Table 1) for 35 min at 4° C. BMDC maturation was determined by characterizing the cell surface marker expression using FACSDiva on a LSRII flow cytometer (BD Biosciences). Over 20,000 events were recorded for each sample and data were analyzed with FlowJo software. Different concentrations of P-D2-PEG5-PS-aVD (aVD concentration=0, 10^−9, and 10^−8 M) were also investigated on BMDC maturation using the same procedure described above. […] IL12p70 secretion in supernatant of the cell culture in the last 48 h were determined by enzyme-linked immunosorbent assay (ELISA) following the manufacturer's instructions (Fisher Thermo Scientific).

atherosclerotic lesions = test: Atherosclerotic lesion quantification and immunohistochemistry after 8 weeks treatment; format: in vivo, ApoE−/− mice; conditions: total aVD dose 800 ng over 8 weeks
Description: Treatment—Male ApoE^−/− mice at 8-weeks of age were fed a high-fat diet (HFD, Harlan Teklad TD.88137, 42% kcal from fat) for 4 weeks. Treatments were performed from week 12 and 100 μl of different treatments: 1, PBS (control); 2, free aVD (1 μg/ml); 3, PS-aVD; 4, P-D2-PEG5-PS-aVD; 5, P210/P-D2-PEG5-PS-aVD (2, 3, 4, 5 groups with the same aVD concentration of 1 μg/ml) were subsequently i.v. administrated every week for 8 weeks. During those weeks, mice were maintained on a high-fat diet, and the activities and body weight was monitored. In vivo experiments were performed with group sizes of N=5-6 mice per group and then independently repeated for a total of N=10-12 mice per group.
Atherosclerotic lesion quantification and immunohistochemistry—For atherosclerotic lesion analysis, mice were anesthetized and aortas were carefully harvested after perfusion with PBS under a microscope. The heart with ascending aorta was fixed with 4% paraformaldehyde (PFA)/5% sucrose in PBS solution 12 h at 4° C. […] For quantitative analysis of atherosclerotic lesions, 5-7 separate cross-sections from each mouse were stained with Oil Red 0 (ORO) (Sigma) for 1 h at 37° C. and 4′,6-diamidino-2-phenylindole (DAPI) for 5 min. […] An in-house software written in Python was developed for automated and quantitative image analysis (FIG. 16) […]

atherosclerotic plaque = conditions: orally to mice, total dose 4800 ng over 12 weeks; cited from earlier work

Row | hair follicles, histological analysis ([2]; low dosage) | injection site alopecia ([2]; low dosage) | injection site alopecia ([2]; mice treated with free rapamycin) | hair follicles, histological analysis ([2]; standard dosage) | SMILES | mice remaining normoglycemic 100 days post transplantation (allogeneic islet graft) [%] | patients impacted by alopecia [1] | partition into red blood cells (red blood cells) [%] | ACAA1 Fold Change ([3]; Spleen CD4+ Regulatory T Cells) | CD79A Fold Change ([3]; Spleen CD4+ Regulatory T Cells) | CRKL Fold Change ([3]; Spleen CD4+ Regulatory T Cells) | MZB1 Fold Change ([3]; Spleen CD4+ Regulatory T Cells) | PIK3R1 Fold Change ([3]; Spleen CD4+ Regulatory T Cells) | IGF1 Fold Change ([3]; Spleen Macrophages) | MGAT1 Fold Change ([3]; Spleen Macrophages) | ZDHHC3 Fold Change ([3]; Spleen Macrophages) | expression of MHC-II, CD80 and CD86 by stimulated BMDCs (BMDCs) | improvements in plaque area and macrophage content at the same dosage (atherosclerotic lesions) | decrease in plaque area (atherosclerotic plaque) [%] | reduction in macrophage accumulation (atherosclerotic plaque) [%]
1 | some mature follicles present | alopecia was reduced | experienced injection site alopecia | Only immature follicles | CO[C@H]1C[C@@H]2CC[C@@H](C)[C@@](O)(O2)C(=O)C(=O)N2CCCC[C@H]2C(=O)O[C@H]([C@H](C)C[C@@H]2CC[C@@H](O)[C@H](OC)C2)CC(=O)[C@H](C)/C=C(\C)[C@@H](O)[C@@H](OC)C(=O)[C@H](C)C[C@H](C)/C=C/C=C/C=C/1C [rapamycin] | 71 | approximately 10% | 95 | −3.833 | −24 | 7.387 | −24 | −12 | −9.108 | 5.0747 | −8.143 | – | – | – | –
2 | – | – | – | – | C=C1/C(=C\C=C2/CCC[C@]3(C)[C@@H]([C@H](C)CCCC(C)(C)O)CC[C@@H]23)C[C@@H](O)C[C@@H]1O [aVD, 1, 25-Dihydroxyvitamin D3] | – | – | – | – | – | – | – | – | – | – | – | significantly decreased expression | no | 39 | 29
